Legend:
[1] = molecular target: GDP-bound KRAS wild-type protein (Homo sapiens, UniProt P01116); assay: Binding to KRAS by surface plasmon resonance (SPR), Single Cycle Kinetics; conditions: SPR, Single Cycle Kinetics, GDP-bound KRAS wild-type protein; read-out: KRAS KD
[2] = molecular target: GDP-bound NRAS wild-type protein (Homo sapiens, UniProt P01111); assay: Binding to NRAS by surface plasmon resonance (SPR), Single Cycle Kinetics; conditions: SPR, GDP-bound NRAS wild-type protein vs GDP-bound KRAS wild-type protein
Chain of GDP-bound NRAS wild-type protein (P01111 whole entry): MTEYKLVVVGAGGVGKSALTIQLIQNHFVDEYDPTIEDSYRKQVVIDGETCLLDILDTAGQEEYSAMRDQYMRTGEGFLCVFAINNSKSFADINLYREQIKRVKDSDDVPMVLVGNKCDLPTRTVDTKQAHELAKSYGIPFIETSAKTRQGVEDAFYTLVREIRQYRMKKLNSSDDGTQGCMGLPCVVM

[3] = molecular target: GDP-bound HRAS wild-type protein (Homo sapiens, UniProt P01112); assay: Binding to HRAS by surface plasmon resonance (SPR), Single Cycle Kinetics; conditions: SPR, GDP-bound HRAS wild-type protein vs GDP-bound KRAS wild-type protein
Chain of GDP-bound HRAS wild-type protein (P01112 whole entry): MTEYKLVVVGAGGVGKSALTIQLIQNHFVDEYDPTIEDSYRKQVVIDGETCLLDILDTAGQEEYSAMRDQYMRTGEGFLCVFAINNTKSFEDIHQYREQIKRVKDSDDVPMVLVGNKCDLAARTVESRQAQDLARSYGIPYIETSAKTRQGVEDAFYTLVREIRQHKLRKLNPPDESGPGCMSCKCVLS

Chain of GDP-bound KRAS wild-type protein (P01116 whole entry): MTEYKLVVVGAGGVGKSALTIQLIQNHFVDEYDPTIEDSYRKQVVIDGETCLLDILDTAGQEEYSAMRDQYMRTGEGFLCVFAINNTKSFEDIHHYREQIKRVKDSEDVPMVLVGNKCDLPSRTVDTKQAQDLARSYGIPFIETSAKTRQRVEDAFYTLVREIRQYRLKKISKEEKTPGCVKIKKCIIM

SMILES	Kd [1] [nM]	NRAS/KRAS (ratio of KD value for NRAS to KD value for KRAS) [2]	HRAS/KRAS (ratio of KD value for HRAS to KD value for KRAS) [3]
CCO[C@@H]1C[C@H]2C(=O)NC3(CC(C)(C)C3)C(=O)N(C)[C@@H](C(CC)CC)C(=O)N(C)[C@H](C(=O)N(C)C)CC(=O)N(C)[C@@H](CC(C)C)C(=O)N[C@@H]([C@@H](C)CC)C(=O)N(C)CC(=O)N(C)[C@H]3C/C=C\CCN(C3=O)[C@@H](Cc3ccc(C)cc3)C(=O)N(C)CC(=O)N[C@@H](CCc3ccc(Cl)c(Cl)c3)C(=O)N2C1 [PP2185]	0.71	AA (a compound having 20 or more is denoted as AA)	A (a compound having 10 or more and less than 20 is denoted as A)
CCO[C@@H]1C[C@H]2C(=O)NC3(CC(C)(C)C3)C(=O)N(C)[C@@H](C(CC)CC)C(=O)N(C)[C@H](C(=O)N(C)C)CC(=O)N(C)[C@@H](C)C(=O)N[C@@H]([C@@H](C)CC)C(=O)N(C)CC(=O)N(C)[C@H]3C/C=C\CCN(C3=O)[C@@H](Cc3ccc(C)cc3)C(=O)N(C)CC(=O)N[C@@H](CCc3ccc(Cl)c(Cl)c3)C(=O)N2C1 [PP2186]	2.3	AA (a compound having 20 or more is denoted as AA)	A (a compound having 10 or more and less than 20 is denoted as A)
CCO[C@@H]1C[C@H]2C(=O)NC3(CC(C)(C)C3)C(=O)N(C)[C@@H](C(CC)CC)C(=O)N(C)[C@H](C(=O)N3CCCC3)CC(=O)N(C)[C@@H](C)C(=O)N[C@@H]([C@@H](C)CC)C(=O)N(C)CC(=O)N(C)[C@H]3C/C=C\CCN(C3=O)[C@@H](Cc3ccc(C)cc3)C(=O)N(C)CC(=O)N[C@@H](CCc3ccc(Cl)c(Cl)c3)C(=O)N2C1 [PP2187]	0.69	AA (a compound having 20 or more is denoted as AA)	A (a compound having 10 or more and less than 20 is denoted as A)
CCO[C@@H]1C[C@H]2C(=O)NC3(CC(C)(C)C3)C(=O)N(C)[C@@H](C(CC)CC)C(=O)N(C)[C@H](C(=O)N(C)C)CC(=O)N(C)[C@@H](CC)C(=O)N[C@@H]([C@@H](C)CC)C(=O)N(C)CC(=O)N(C)[C@H]3C/C=C\CCN(C3=O)[C@@H](Cc3ccc(C)cc3)C(=O)N(C)CC(=O)N[C@@H](CCc3ccc(Cl)c(Cl)c3)C(=O)N2C1 [PP2188]	0.71	AA (a compound having 20 or more is denoted as AA)	A (a compound having 10 or more and less than 20 is denoted as A)
CCO[C@@H]1C[C@H]2C(=O)NC3(CCCC3)C(=O)N(C)[C@@H](C3CCCC3)C(=O)N(C)[C@H](C(=O)N(C)C)CC(=O)N(C)[C@@H](CC(C)C)C(=O)N[C@@H]([C@@H](C)CC)C(=O)N(C)CC(=O)N(C)[C@H]3C/C=C\CCN(C3=O)[C@@H](Cc3ccc(C)cc3)C(=O)N(C)CC(=O)N[C@@H](CCc3ccc(C(F)(F)F)c(Cl)c3)C(=O)N2C1 [PP2195]	0.096	A (a compound having 10 or more and less than 20 is denoted as A)	A (a compound having 10 or more and less than 20 is denoted as A)
CCC[C@H]1C(=O)N[C@@H](C2CCCC2)C(=O)N(C)CC(=O)N(C)[C@H]2C/C=C\CCN(C2=O)[C@@H](Cc2ccc(C)cc2)C(=O)N(C)CC(=O)N[C@@H](CCc2ccc(C(F)(F)F)c(Cl)c2)C(=O)N2C[C@H](OCC)C[C@H]2C(=O)NC2(CC(C)(C)C2)C(=O)N(C)[C@@H](CC(C)(C)C)C(=O)N(C)[C@H](C(=O)N(C)C)CC(=O)N1C [PP2196]	0.24	A (a compound having 10 or more and less than 20 is denoted as A)	B (a compound having 3 or more and less than 10 is denoted as B)
CCO[C@@H]1C[C@H]2C(=O)NC3(CCCC3)C(=O)N(C)[C@@H](C3CCCC3)C(=O)N(C)[C@H](C(=O)N(C)C)CC(=O)N(C)[C@@H](CC(C)C)C(=O)N[C@@H]([C@@H](C)CC)C(=O)N(C)CC(=O)N(C)[C@H]3C/C=C\CCN(C3=O)[C@@H](Cc3ccc(C)cc3)C(=O)N(C)CC(=O)N[C@@H](CCc3ccc(C(F)(F)F)c(OC)c3)C(=O)N2C1 [PP2197]	0.15	A (a compound having 10 or more and less than 20 is denoted as A)	B (a compound having 3 or more and less than 10 is denoted as B)
CCC[C@H]1C(=O)N[C@@H](C2CCCC2)C(=O)N(C)CC(=O)N(C)[C@H]2C/C=C\CCN(C2=O)[C@@H](Cc2ccc(C)cc2)C(=O)N(C)CC(=O)N[C@@H](CCc2ccc(C(F)(F)F)c(Cl)c2)C(=O)N2C[C@H](OCC)C[C@H]2C(=O)NC2(CC(C)(C)C2)C(=O)N(C)[C@@H](C2CCCC2)C(=O)N(C)[C@H](C(=O)N(C)C)CC(=O)N1C [PP2198]	0.21	A (a compound having 10 or more and less than 20 is denoted as A)	A (a compound having 10 or more and less than 20 is denoted as A)
CCC[C@H]1C(=O)N[C@@H](C(CC)CC)C(=O)N(C)CC(=O)N(C)[C@H]2C/C=C\CCN(C2=O)[C@@H](Cc2ccc(C)cc2)C(=O)N(C)CC(=O)N[C@@H](CCc2ccc(C(F)(F)F)c(Cl)c2)C(=O)N2C[C@H](OCC)C[C@H]2C(=O)NC2(CC(C)(C)C2)C(=O)N(C)[C@@H](CC(C)(C)C)C(=O)N(C)[C@H](C(=O)N(C)C)CC(=O)N1C [PP2207]	0.79	A (a compound having 10 or more and less than 20 is denoted as A)	A (a compound having 10 or more and less than 20 is denoted as A)
CCC[C@@H]1C[C@H]2C(=O)NC3(CC(C)(C)C3)C(=O)N(C)[C@@H](C3CCCC3)C(=O)N(C)[C@H](C(=O)N(C)C)CC(=O)N(C)[C@@H](CC)C(=O)N[C@@H]([C@@H](C)CC)C(=O)N(C)CC(=O)N(C)[C@H]3C/C=C\CCN(C3=O)[C@@H](Cc3ccc(C)cc3)C(=O)N(C)CC(=O)N[C@@H](CCc3cc(F)c(C(F)(F)F)c(F)c3)C(=O)N2C1 [PP2208]	0.2	A (a compound having 10 or more and less than 20 is denoted as A)	A (a compound having 10 or more and less than 20 is denoted as A)
CCC[C@H]1C(=O)N[C@@H](C(CC)CC)C(=O)N(C)CC(=O)N(C)[C@H]2C/C=C\CCN(C2=O)[C@@H](Cc2ccc(C)cc2)C(=O)N(C)CC(=O)N[C@@H](CCc2ccc(C(F)(F)F)c(Cl)c2)C(=O)N2C[C@H](OCC)C[C@H]2C(=O)NC2(CC(C)(C)C2)C(=O)N(C)[C@@H](C2CCCC2)C(=O)N(C)[C@H](C(=O)N(C)C)CC(=O)N1C [PP2209]	0.81	A (a compound having 10 or more and less than 20 is denoted as A)	A (a compound having 10 or more and less than 20 is denoted as A)
CCC[C@H]1C(=O)N[C@@H]([C@@H](C)CC)C(=O)N(C)CC(=O)N(C)[C@H]2C/C=C\CCN(C2=O)[C@@H](Cc2ccc(C)cc2)C(=O)N(C)CC(=O)N[C@@H](CCc2ccc(C(F)(F)F)c(Cl)c2)C(=O)N2C[C@H](CC)C[C@H]2C(=O)NC2(CC(C)(C)C2)C(=O)N(C)[C@@H](C2CCCC2)C(=O)N(C)[C@H](C(=O)N(C)C)CC(=O)N1C [PP2212]	0.34	A (a compound having 10 or more and less than 20 is denoted as A)	B (a compound having 3 or more and less than 10 is denoted as B)
CCC[C@H]1C(=O)N[C@@H]([C@@H](C)CC)C(=O)N(C)CC(=O)N(C)[C@H]2C/C=C\CCN(C2=O)[C@@H](Cc2ccc(C)cc2)C(=O)N(C)CC(=O)N[C@@H](CCc2ccc(C(F)(F)F)c(Cl)c2)C(=O)N2C[C@H](OCC)C[C@H]2C(=O)NC2(CC(C)(C)C2)C(=O)N(C)[C@@H](CC(C)C)C(=O)N(C)[C@H](C(=O)N(C)C)CC(=O)N1C [PP2224]	0.38	A (a compound having 10 or more and less than 20 is denoted as A)	A (a compound having 10 or more and less than 20 is denoted as A)
CCC[C@H]1C(=O)N[C@@H]([C@@H](C)CC)C(=O)N(C)CC(=O)N(C)[C@H]2C/C=C\CCN(C2=O)[C@@H](Cc2ccc(C)cc2)C(=O)N(C)CC(=O)N[C@@H](CCc2ccc(C(F)(F)F)c(Cl)c2)C(=O)N2C[C@H](OCC)C[C@H]2C(=O)NC2(CC(C)(C)C2)C(=O)N(C)[C@@H](CC(F)(F)F)C(=O)N(C)[C@H](C(=O)N(C)C)CC(=O)N1C [PP2226]	0.82	A (a compound having 10 or more and less than 20 is denoted as A)	A (a compound having 10 or more and less than 20 is denoted as A)
CCCOC[C@H]1C(=O)N[C@@H]([C@@H](C)CC)C(=O)N(C)CC(=O)N(C)[C@H]2C/C=C\CCN(C2=O)[C@@H](Cc2ccc(C)cc2)C(=O)N(C)CC(=O)N[C@@H](CCc2cc(F)c(C(F)(F)F)c(F)c2)C(=O)N2C[C@H](CCC)C[C@H]2C(=O)NC2(CCCC2)C(=O)N(C)[C@@H](C2CCCC2)C(=O)N(C)[C@H](C(=O)N(C)C)CC(=O)N1C [PP2229]	0.38	A (a compound having 10 or more and less than 20 is denoted as A)	A (a compound having 10 or more and less than 20 is denoted as A)

From patent US20240158446A1, “CYCLIC COMPOUND HAVING SELECTIVE INHIBITORY ACTION ON KRAS OVER HRAS AND NRAS” (CHUGAI SEIYAKU KABUSHIKI KAISHA, priority 2021, published 2024)
